Values after ≈ are worked out from the molar mass of the structure shown.
Legend:
Corynebacterium xerosis = test: MIC determination, series dilution test (microtiter plate) / agar dilution method; assay type: cell-based
Method: (§1) The evidence of the antimicrobial action against body perspiration odor bacteria of the substances synthesized according to the examples was implemented with the aid of the agar dilution method according to DIN 58 940/ICS and DIN 58 944/ICS. Petri dishes of 5.5 cm in diameter were filled with 8.7 ml freshly produced Mueller-Hinton-agar or Wilkins-Chalgren-agar bouillon kept liquid at 50° C., supplemented with 10 g agar-agar/liter) to which the various concentrations of the thinned samples were added in 3.3% by volume=0.3 ml.
(§2) 2.6 ml of the 3.3% samples were diluted with ethanol (96%). By continuous 2:1 dilution with ethanol (96%) the further test concentrations of the respective series of dilution, which were placed in the form of geometric rows, were produced.
(§3) By further dilution with the test agar (0.3 ml sample or corresponding dilutions+8.7 ml agar), 30 times lower end concentrations were achieved (corresponds to a starting concentration of 1,100 ppm in each case). The concentrations disclosed below relate to the pure substance and are converted into ppm. […]
(§4) All the test germ suspensions were diluted again with sterile bouillon 1:10 and the germ count thereof determined in the surface method per spiralometer (results: see Table 1).
(§5) The lowest active ingredient concentration was regarded as the MIC (minimal inhibition concentration), at which no growth is macroscopically present. Minimal, hardly visible growth or a few small individual colonies were evaluated as inhibition.
(§6) The minimum inhibition concentration (MIC) of the compound according to the invention, was determined against various cosmetically relevant germs in the series dilution test (H. Brandis, G. Pulverer: Lehrbuch der Medizinischen Mikrobiologie, 6th revised edition, Gustav Fischer Verlag Stuttgart, 1988; page 200 et seq.). The test was transferred to the microtiter plate format and the concentration was determined as the MIC value, in which after 16 hours of incubation, at the wavelength of 620 nm, no significant rise in the clouding was observed relative to the controls.

Staphylococcus aureus = test: as above; assay type: cell-based; settings: ATCC6538; Staphylococcus aureus ATCC 6538; 16 hours incubation, clouding at 620 nm
Method: as §1, §2, §3, §4, §5, §6

[1] = ABTS assay, cell-free in vitro test of antioxidant capacity; assay type: biochemical; set-up: Mean antioxidant capacity (AOX): unit not given here; settings: for IC50: ABTS decoloration at 734 nm, read-out: IC50 (antioxidant concentration in which 50% of the cationic radicals are reduced); for IC50 / Mean antioxidant capacity (AOX): mean of two independent tests
Description: In order to check to what extent L-menthyl-N-(2-hydroxyphenyl)carbamate also has antioxidant potential, the substance was investigated with the aid of the ABTS assay.
The ABTS assay is a cell-free in vitro test for evaluating the antioxidant capacity (literature: Re R, Pellegrini N, Proteggente A, Pannala A, Yang M, Rice-Evans C. 1999. “Antioxidant activity applying an improved ABTS radical cation decolorization assay”; Free Radic. Bio. Med. 26: 1231-7). The assay uses the inherent color of a solution produced with the cationic radical 2,2′-azinobis(3-ethylbenzothiazoline 6-sulfonic acid) (ABTS+) and potassium persulfate, which solution is decolored by the addition of antioxidants (reduction of the cationic radical). This decoloration can be measured photometrically at 734 nm.
The test is carried out in 96-well microtiter plates. The antioxidant capacity is expressed in IC50 values (antioxidant concentration in which 50% of the cationic radicals are reduced). All the ABTS test results result from two independent tests and are shown as mean values with associated mean value deviation.

Aspergillus niger = test: MIC determination, series dilution test (microtiter plate) / agar dilution method; assay type: cell-based
Method: as §1
2.6 ml of the 3.3% samples were diluted with ethanol (96%). […]
as §4, §5
The minimum inhibition concentration (MIC) of the compound according to the invention, was determined against various cosmetically relevant germs in the series dilution test (H. Brandis, G. Pulverer: Lehrbuch der Medizinischen Mikrobiologie, 6th revised edition, Gustav Fischer Verlag Stuttgart, 1988; page 200 et seq.). […]

Structure (SMILES)	MIC (Corynebacterium xerosis; ATCC7711, Corynebacterium xerosis ATCC 7711, 16 hours incubation, clouding at 620 nm) [µg/mL]	inhibition of the growth (in words) (Corynebacterium xerosis; gram-positive bacteria such as corynebacterium xerosis, very small concentrations)	MIC (Staphylococcus aureus) [µg/mL]	IC50 [1] [µM]	antioxidant capacity compared with reference alpha-tocopherol (in words) ([1]; ABTS investigations)	Mean antioxidant capacity (AOX) ([1]; concentration 0.001 mM)	Mean antioxidant capacity (AOX) ([1]; concentration 0.0025 mM)	Mean antioxidant capacity (AOX) ([1]; concentration 0.005 mM)	Mean antioxidant capacity (AOX) ([1]; concentration 0.025 mM)	Mean antioxidant capacity (AOX) ([1]; concentration 0.05 mM)	MIC (Aspergillus niger; ATCC16404, Aspergillus niger ATCC 16404, 16 hours incubation, clouding at 620 nm) [µg/mL]	activity relative to mould fungi (in words) (Aspergillus niger; mould fungi such as Aspergillus niger)
CC(C)[C@@H]1CC[C@@H](C)C[C@H]1OC(=O)Nc1ccccc1O [L-menthyl-N-(2-hydroxyphenyl)carbamate]	8 (≈ 27.5 µM)	clear inhibition of the growth	8 (≈ 27.5 µM)	19	comparable with the antioxidant capacity of the reference substance alpha-tocopherol	3.58	8.84	17.50	63.15	96.56	> 1000	inactive
Cc1c(C)c2c(c(C)c1O)CC[C@@](C)(CCC[C@H](C)CCC[C@H](C)CCCC(C)C)O2 [alpha-tocopherol, reference compound]	–	–	–	25	–	0.56	4.16	10.83	51.38	94.88	–	–

— US8911715B2, “L-menthyl-N-(2-hydroxyphenyl)carbamate” (Symrise AG, priority 2008, dated 2014)
